Data: patent US20260285850A1, “SUBSTITUTED OXAZOLIDINONES AND IMIDAZOLINONES AS HERBICIDES” (FMC CORPORATION, priority 2023, published 2026)

Key:
Type in all cases: in vivo
[1] = tested on: wheat (Triticum aestivum); experiment: Test A preemergence soil spray, visual injury rating 0-100; conditions: 10 days
How it was run: (§1)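 Visual injury ratings (0, no effect; 100, complete control) were assigned relative to untreated plants 10 days after treatment. Test chemicals, formulated with a surfactant-containing non-phytotoxic solvent, were applied in loam-sand soil either as a directed soil spray before emergence or to emerged plants, and plants were kept in a greenhouse.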

[2] = tested on: palmer (palmer amaranth, palmer pigweed, Amaranthus palmeri); experiment: as above; conditions: 10 days
How it was run: as §1

[3] = tested on: green foxtail (Setaria viridis); experiment: as above; conditions: 10 days
How it was run: as §1

[4] = tested on: ryegrass, Italian (italian ryegrass, Lolium multiflorum); experiment: as above; conditions: 10 days
How it was run: as §1

kochia (Bassia scoparia) [5] = experiment: as above; conditions: 10 days
How it was run: as §1

[6] = tested on: blackgrass (Alopecurus myosuroides); experiment: as above; conditions: 10 days
How it was run: as §1

[7] = tested on: barnyardgrass (Echinochloa crus-galli); experiment: as above; conditions: 10 days
How it was run: as §1

[8] = tested on: ragweed (common ragweed, Ambrosia artemisiifolia); experiment: as above; conditions: 10 days
How it was run: as §1

[9] = tested on: oat, wild (wild oat, Avena fatua); experiment: as above; conditions: 10 days
How it was run: as §1

soybean (Glycine max) [10] = experiment: as above; conditions: 10 days
How it was run: as §1

corn (Zea mays) [11] = experiment: as above; conditions: 10 days
How it was run: as §1

[12] = tested on: wheat (Triticum aestivum); experiment: Test A postemergence application, visual injury rating 0-100
How it was run: as §1

[13] = tested on: palmer (palmer amaranth, palmer pigweed, Amaranthus palmeri); experiment: as above
How it was run: as §1

[14] = tested on: green foxtail (Setaria viridis); experiment: as above
How it was run: as §1

[15] = tested on: horseweed (Erigeron canadensis); experiment: as above
How it was run: as §1

[16] = tested on: galium (catchweed bedstraw, Galium aparine); experiment: as above
How it was run: as §1

[17] = tested on: ryegrass, Italian (italian ryegrass, Lolium multiflorum); experiment: as above
How it was run: as §1

kochia (Bassia scoparia) [18] = experiment: as above
How it was run: as §1

[19] = tested on: blackgrass (Alopecurus myosuroides); experiment: as above
How it was run: as §1

[20] = tested on: barnyardgrass (Echinochloa crus-galli); experiment: as above
How it was run: as §1

[21] = tested on: ragweed (common ragweed, Ambrosia artemisiifolia); experiment: as above
How it was run: as §1

[22] = tested on: oat, wild (wild oat, Avena fatua); experiment: as above
How it was run: as §1

soybean (Glycine max) [23] = experiment: as above
How it was run: as §1

corn (Zea mays) [24] = experiment: as above
How it was run: as §1

[25] = tested on: ducksalad (Heteranthera limosa); experiment: Test B flooded paddy test, visual plant response rating 0-100; conditions: 250 g ai/ha, Flood, applied to paddy water, evaluated after 13 days
How it was run: (§2)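 2-leaf plants; flood 3 cm over soil; compound dosed into paddy water; depth kept constant; greenhouse 13 d; visual scoring vs controls. Dash = no result.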

[26] = tested on: barnyardgrass (Echinochloa crusgalli); experiment: as above; conditions: 250 g ai/ha, Flood, applied to paddy water, evaluated after 13 days
How it was run: as §2

rice (Oryza sativa) = experiment: as above; conditions: 250 g ai/ha, Flood, applied to paddy water, evaluated after 13 days
How it was run: as §2

[27] = tested on: sedge, umbrella (small-flower umbrella sedge, Cyperus difformis); experiment: as above; conditions: 250 g ai/ha, Flood, applied to paddy water, evaluated after 13 days
How it was run: as §2

[28] = 62 g ai/ha, 0 = no effect, 100 = complete control
[29] = 62 g ai/ha, postemergence, 10 days, 0 = no effect, 100 = complete control
[30] = Postemergence, 16 g ai/ha, greenhouse 10 days, 0 no effect, 100 complete control

## C=CC1(C(=O)NC2C=CC(C(=O)OC)C2)CN(c2cc(F)cc(F)c2)C(=O)O1 (single isomer, unassigned) [Compound 167]
[1]; 16 g ai/ha, 0 to 100 scale
  Wheat plant response rating: 70
[1]; [28]
  Wheat plant response rating (0-100): 90
[2]; 16 g ai/ha, 0 to 100 scale
  Pigweed, Palmer plant response rating: 100
[2]; [28]
  Pigweed, Palmer plant response rating (0-100): 100
[3]; 16 g ai/ha, 0 to 100 scale
  Foxtail, Green plant response rating: 90
[3]; [28]
  Foxtail, Green plant response rating (0-100): 100
[4]; 16 g ai/ha, 0 to 100 scale
  Ryegrass, Italian plant response rating: 80
[4]; [28]
  Ryegrass, Italian plant response rating (0-100): 90
Kochia (Bassia scoparia) [5]; 16 g ai/ha, 0 to 100 scale
  Kochia plant response rating: 70
Kochia (Bassia scoparia) [5]; [28]
  Kochia plant response rating (0-100): 100
[6]; 16 g ai/ha, 0 to 100 scale
  Blackgrass plant response rating: 30
[6]; [28]
  Blackgrass plant response rating (0-100): 70
[7]; 16 g ai/ha, 0 to 100 scale
  Barnyardgrass plant response rating: 60
[7]; [28]
  Barnyardgrass plant response rating (0-100): 100
[8]; 16 g ai/ha, 0 to 100 scale
  Ragweed plant response rating: 60
[8]; [28]
  Ragweed plant response rating (0-100): 90
[9]; 16 g ai/ha, 0 to 100 scale
  Oat, Wild plant response rating: 50
[9]; [28]
  Oat, Wild plant response rating (0-100): 90
Soybean (Glycine max) [10]; 16 g ai/ha, 0 to 100 scale
  Soybean plant response rating: 70
Soybean (Glycine max) [10]; [28]
  Soybean plant response rating (0-100): 80
Corn (Zea mays) [11]; 16 g ai/ha, 0 to 100 scale
  Corn plant response rating: 40
Corn (Zea mays) [11]; [28]
  Corn plant response rating (0-100): 90
[12]; [29]
  Wheat plant response rating (0-100): 90
[12]; [30]
  Wheat plant response rating (0 to 100 scale): 90
[13]; [29]
  Pigweed, Palmer plant response rating (0-100): 90
[13]; [30]
  Pigweed, Palmer plant response rating (0 to 100 scale): 90
[14]; [29]
  Foxtail, Green plant response rating (0-100): 90
[14]; [30]
  Foxtail, Green plant response rating (0 to 100 scale): 90
[15]; [29]
  Horseweed plant response rating (0-100): 80
[15]; [30]
  Horseweed plant response rating (0 to 100 scale): 80
[16]; [29]
  Galium plant response rating (0-100): 80
[16]; [30]
  Galium plant response rating (0 to 100 scale): 80
[17]; [29]
  Ryegrass, Italian plant response rating (0-100): 90
[17]; [30]
  Ryegrass, Italian plant response rating (0 to 100 scale): 80
Kochia (Bassia scoparia) [18]; [29]
  Kochia plant response rating (0-100): 80
Kochia (Bassia scoparia) [18]; [30]
  Kochia plant response rating (0 to 100 scale): 80
[19]; [29]
  Blackgrass plant response rating (0-100): 90
[19]; [30]
  Blackgrass plant response rating (0 to 100 scale): 80
[20]; [29]
  Barnyardgrass plant response rating (0-100): 90
[20]; [30]
  Barnyardgrass plant response rating (0 to 100 scale): 90
[21]; [29]
  Ragweed plant response rating (0-100): 80
[21]; [30]
  Ragweed plant response rating (0 to 100 scale): 70
[22]; [29]
  Oat, Wild plant response rating (0-100): 90
[22]; [30]
  Oat, Wild plant response rating (0 to 100 scale): 90
Soybean (Glycine max) [23]; [29]
  Soybean plant response rating (0-100): 80
Soybean (Glycine max) [23]; [30]
  Soybean plant response rating (0 to 100 scale): 80
Corn (Zea mays) [24]; [29]
  Corn plant response rating (0-100): 100
Corn (Zea mays) [24]; [30]
  Corn plant response rating (0 to 100 scale): 100
[25]
  Plant response rating, Ducksalad (0 to 100 scale, 0 is no effect and 100 is complete control): 98
[26]
  Plant response rating, Barnyardgrass (0 to 100 scale, 0 is no effect and 100 is complete control): 90
Rice (Oryza sativa)
  Plant response rating, Rice (0 to 100 scale, 0 is no effect and 100 is complete control): 98
[27]
  Plant response rating, Sedge, Umbrella (0 to 100 scale, 0 is no effect and 100 is complete control): 98
